Test results from patent publication US9101577B2, “Analgesic pharmaceutical composition for oral administration” (Warszawski Uniwersytet Medyczny, priority 2011, dated 2015).

Assays:
[1] = system: Male Wistar rats; assay: Acute activity after single p.o. administration, paw withdrawal test (Randall and Selitto), % of analgesia; format: in vivo, rat; details: for analgesic activity on separate administration (codeine study) / analgesic activity / pain perception threshold on separate administration (dihydrocodeine study) / analgesic activity / pain threshold when administered alone (morphine study) / analgesic activity on separate administration (oxycodone study) / analgesic activity on separate administration (tramadol study): single separate administration p.o., magnesium salts 15 mg magnesium ions/kg; for analgesic activity on separate administration (codeine study): codeine 175 mg/kg; for analgesic activity / pain perception threshold on separate administration (dihydrocodeine study): dihydrocodeine 50 mg/kg; for effect on analgesic activity of codeine / activity on codeine analgesia compared to micronized form: 15 mg magnesium ions/kg p.o. with codeine 175 mg/kg p.o.; for effect on morphine analgesia / activity on morphine analgesia in comparison (to micronized magnesium lactate / to micronized form) / enhancement of morphine analgesia lasted up to: 15 mg magnesium ions/kg p.o. with morphine 15 mg/kg p.o.; for analgesic activity / pain threshold when administered alone (morphine study): morphine 15 mg/kg; for analgesic activity on separate administration (oxycodone study): oxycodone 5 mg/kg; for analgesic activity on separate administration (tramadol study): tramadol 125 mg/kg
Method: (§1) Male Wistar rats (250-300 g) were housed in a room maintained at a temperature of 20±2° C. under 12 h-12 h light-dark cycles. The animals had free access to food and water. Experimental groups consisted of six rats.
(§2) Drugs • Morphine at a dose of 15 mg/kg, codeine at a dose of 175 mg/kg, tramadol at a dose of 125 mg/kg and oxycodone at a dose of 5 mg/kg were dissolved in distilled water; • Dihydrocodeine at a dose of 50 mg/kg was suspended in 1% solution of methylcellulose; • Magnesium lactate (in micronized form)—at a dose of 15 mg magnesium ions/kg (150 mg of magnesium lactate/kg) was suspended in 0.5% solution of methylcellulose; • Magnesium lactate in normal (non-micronized) form—at doses of 15 or 30 mg magnesium ions/kg (150 or 300 mg of magnesium lactate/kg, respectively) was suspended in 0.5% solution of methylcellulose; • Magnesium citrate (in micronized and normal form)—at a dose of 15 mg magnesium ions/kg (112 mg of magnesium citrate/kg) was dissolved in distilled water; • Magnesium hydroaspartate (in micronized and normal form)—at a dose of 15 mg magnesium ions/kg (216 mg of magnesium hydroaspartate/kg) was suspended in 0.5% solution of methylcellulose; • Magnesium chloride (in micronized and normal form)—at a dose of 15 mg magnesium ions/kg (59.5 mg of magnesium chloride/kg) was dissolved in distilled water; • Control animals received a 0.5% solution of methylcellulose, a 1% solution of methylcellulose and distilled water, respectively, according to the same time schedule.
Magnesium salts and investigated opioids were administered concomitantly.
The micronized form of magnesium salts used in experiments contains particles of magnesium compounds of size D90<50 μm.
The normal magnesium salts form used in experiments contains particles of sizes commonly available in the market.
Acute activity of investigated drugs was measured in short time periods (from 5 to 300 min) after single administration.
(§3) All drugs were administered per os (p.o.); literally—orally. However, in practice, drugs were administered intragastric via a gastric tube.
(§4) Changes in pain thresholds were determined using a mechanical stimuli—the modification of the classic paw withdrawal test described by Randall and Selitto [1957]. In order to produce mechanical stimulation, progressively increasing pressure was applied to the dorsal surface of the rat's paw using an analgesymeter. The instrument used increased the force on the paw at a rate of 32 grams per second. The nociceptive threshold was defined as force in grams, at which the rat attempted to withdraw its right hindpaw and values of pressure were recorded at this very moment. At least two observers controlled the response.
(§5) Nociceptive thresholds (average of two trials) measured for each animal before single administration of investigated drugs (measurement of acute activity) or in day 0 before the first administration (measurement of prolonged activity) constituted the baseline pain threshold—A. Next, measurements of the withdrawal threshold to mechanical stimuli were performed at 5, 15, 30, 60, 90, 120, 180, 240, 300 min after drug administration (measurements of acute activity) or every day before drug administration (measurements of prolonged activity)—B.
(§6) In all experimental sessions (i.e. every day, each drug investigated) values of thresholds obtained (B) were compared to baseline (A).
(§7) Changes in pain threshold were calculated as a percent of baseline value according to the following formula:
(§8) [formula] • C—% of analgesia; A—pressure (in g), baseline pain threshold; B—pressure (in g) in consecutive measurements.
(§9) Percents of analgesia values calculated as above for individual animals were subsequently used to calculate average values in particular experimental groups and for statistical analysis.
The results are expressed as mean values±standard deviation of the mean (±S.E.M.).

[2] = system: Male Wistar rats; assay: Prolonged activity on repeated daily p.o. administration (7 or 10 days), paw withdrawal test (Randall and Selitto); format: in vivo, rat; details: separate administration p.o., magnesium lactate micronized 15 or normal 30 mg magnesium ions/kg
Method: as §1, §2
Prolonged activity of the investigated drugs was measured the following day after initial administration, but before the next administration as well as after cessation of administration. Drugs were administered for seven consecutive days (administration of morphine, codeine, dihydrocodeine, oxycodone) or for ten days (administration of tramadol).
as §3, §4, §5, §6, §7, §8, §9
The results are expressed as mean values±standard […] of the mean (±S.E.M.). The statistical significance of differences between groups was evaluated by Student's t-test. p≦0.05 was accepted as statistically significant.

[3] = single administration, 15 mg magnesium ions/kg p.o. with tramadol 125 mg/kg p.o.
[4] = single administration, 15 mg magnesium ions/kg p.o. with oxycodone 5 mg/kg p.o.
[5] = single administration, 15 mg magnesium ions/kg p.o. with dihydrocodeine 50 mg/kg p.o.

COc1ccc2c3c1O[C@H]1[C@@H](O)C=C[C@H]4[C@@H](C2)N(C)CC[C@@]341 [codeine, reference compound]
analgesic activity on separate administration (codeine study) [1]: did not exhibit analgesic activity
analgesic activity on separate administration, 7 days (codeine study) ([2]; codeine 175 mg/kg): did not exhibit analgesic activity

COc1ccc2c3c1O[C@H]1[C@@H](O)CC[C@H]4[C@@H](C2)N(C)CC[C@@]341 [dihydrocodeine, reference compound]
analgesic activity / pain perception threshold on separate administration (dihydrocodeine study) [1]: only insignificantly raised the pain perception threshold (90-120 min)
pain threshold on separate administration, 7 days (dihydrocodeine study) ([2]; dihydrocodeine 50 mg/kg): insignificantly raised the nociceptive stimulus threshold on days 6 and 7

[Cl-].[Cl-].[Mg+2] [magnesium chloride, Magnesium chloride]
enhancement of tramadol analgesia lasted until [1, 3]: 90 min
time at which enhancement of tramadol analgesia appeared [1, 3]: 5 min
time of maximum activity on tramadol analgesia [1, 3]: 15 min

N[C@@H](CC(=O)[O-])C(=O)[O-].N[C@@H](CC(=O)[O-])C(=O)[O-].[H+].[H+].[Mg+2] [magnesium hydroaspartate, Magnesium hydroaspartate]
effect on oxycodone analgesia [1, 4]: also enhanced oxycodone analgesia

[Cl-].[Cl-].[Mg+2] [micronized magnesium chloride, Magnesium chloride]
effect on analgesic activity of codeine ([1]; single administration): significantly enhanced the analgesic activity of codeine
effect on dihydrocodeine analgesia [1, 5]: significantly enhanced dihydrocodeine analgesia
time course of activity on dihydrocodeine analgesia [1, 5]: gradually increased and reached a maximum between min 45 and 90 of the measurements and then became weaker by min 210
effect on morphine analgesia ([1]; single administration): significantly enhanced morphine analgesia
effect on oxycodone analgesia [1, 4]: significantly enhanced oxycodone analgesia
time at which activity on oxycodone analgesia appeared [1, 4]: 5 min
time course of activity on oxycodone analgesia [1, 4]: maintained at a constant level up to min 30 of the study, then became weaker in min 45 and disappeared in min 60
effect on antinociceptive activity of tramadol [1, 3]: increased antynociceptive activity of tramadol
analgesic activity on separate administration (codeine study) [1]: did not exhibit analgesic activity
analgesic activity / pain perception threshold on separate administration (dihydrocodeine study) [1]: did not exhibit analgesic activity
analgesic activity / pain threshold when administered alone (morphine study) [1]: Neither morphine nor magnesium lactate and chloride in micronized or normal form administered alone showed analgesic activity
analgesic activity on separate administration (oxycodone study) [1]: showed no analgesic activity
analgesic activity on separate administration (tramadol study) [1]: did not exhibit analgesic activity

N[C@@H](CC(=O)O)C(=O)O [micronized magnesium hydroaspartate, Magnesium hydroaspartate]
effect on analgesic activity of codeine ([1]; single administration): also enhanced codeine analgesia
activity on dihydrocodeine analgesia in comparison (to micronized form / to magnesium lactate) [1, 5]: lasted a shorter time
effect on dihydrocodeine analgesia [1, 5]: also enhanced dihydrocodeine analgesia
activity on morphine analgesia in comparison (to micronized magnesium lactate / to micronized form) ([1]; single administration): weaker, although significant
effect on morphine analgesia ([1]; single administration): also enhanced morphine analgesia
enhancement of morphine analgesia lasted up to ([1]; single administration): 180 min
activity on tramadol analgesia in comparison (to micronized form / to magnesium chloride) [1, 3]: weaker throughout the study
effect on antinociceptive activity of tramadol [1, 3]: also enhanced tramadol analgesia
analgesic activity on separate administration (codeine study) [1]: did not exhibit analgesic activity
analgesic activity / pain perception threshold on separate administration (dihydrocodeine study) [1]: did not exhibit analgesic activity
analgesic activity / pain threshold when administered alone (morphine study) [1]: did not alter the pain threshold
analgesic activity on separate administration (oxycodone study) [1]: showed no analgesic activity
analgesic activity on separate administration (tramadol study) [1]: did not exhibit analgesic activity

[Cl-].[Cl-].[Mg+2] [normal magnesium chloride, Magnesium chloride]
activity on dihydrocodeine analgesia in comparison (to micronized form / to magnesium lactate) [1, 5]: somewhat weaker

N[C@@H](CC(=O)O)C(=O)O [normal magnesium hydroaspartate, Magnesium hydroaspartate]
activity on codeine analgesia compared to micronized form ([1]; single administration): significantly weaker
activity on dihydrocodeine analgesia in comparison (to micronized form / to magnesium lactate) [1, 5]: significantly weaker
activity on morphine analgesia in comparison (to micronized magnesium lactate / to micronized form) ([1]; single administration): much weaker
activity on oxycodone analgesia compared to micronized form [1, 4]: enhanced oxycodone analgesia significantly less when compared to the micronized form
analgesic activity on separate administration (codeine study) [1]: did not exhibit analgesic activity
analgesic activity / pain perception threshold on separate administration (dihydrocodeine study) [1]: did not exhibit analgesic activity
analgesic activity / pain threshold when administered alone (morphine study) [1]: did not alter the pain threshold
analgesic activity on separate administration (oxycodone study) [1]: showed no analgesic activity
analgesic activity on separate administration (tramadol study) [1]: did not exhibit analgesic activity

Magnesium citrate
effect on oxycodone analgesia [1, 4]: also enhanced oxycodone analgesia

Magnesium citrate [micronized magnesium citrate]
effect on analgesic activity of codeine ([1]; single administration): also enhanced codeine analgesia
activity on dihydrocodeine analgesia in comparison (to micronized form / to magnesium lactate) [1, 5]: lasted a shorter time
effect on dihydrocodeine analgesia [1, 5]: also enhanced dihydrocodeine analgesia
activity on morphine analgesia in comparison (to micronized magnesium lactate / to micronized form) ([1]; single administration): weaker, although significant
effect on morphine analgesia ([1]; single administration): also enhanced morphine analgesia
enhancement of morphine analgesia lasted up to ([1]; single administration): 120 min
effect on antinociceptive activity of tramadol [1, 3]: also enhanced tramadol analgesia
analgesic activity on separate administration (codeine study) [1]: did not exhibit analgesic activity
analgesic activity / pain perception threshold on separate administration (dihydrocodeine study) [1]: did not exhibit analgesic activity
analgesic activity / pain threshold when administered alone (morphine study) [1]: did not alter the pain threshold
analgesic activity on separate administration (oxycodone study) [1]: showed no analgesic activity
analgesic activity on separate administration (tramadol study) [1]: did not exhibit analgesic activity

Magnesium citrate [normal magnesium citrate]
activity on codeine analgesia compared to micronized form ([1]; single administration): significantly weaker
activity on dihydrocodeine analgesia in comparison (to micronized form / to magnesium lactate) [1, 5]: significantly weaker
activity on morphine analgesia in comparison (to micronized magnesium lactate / to micronized form) ([1]; single administration): much weaker
activity on oxycodone analgesia compared to micronized form [1, 4]: enhanced oxycodone analgesia significantly less when compared to the micronized form
analgesic activity on separate administration (codeine study) [1]: did not exhibit analgesic activity
analgesic activity / pain perception threshold on separate administration (dihydrocodeine study) [1]: did not exhibit analgesic activity
analgesic activity / pain threshold when administered alone (morphine study) [1]: did not alter the pain threshold
analgesic activity on separate administration (oxycodone study) [1]: showed no analgesic activity
analgesic activity on separate administration (tramadol study) [1]: did not exhibit analgesic activity
